# Earlier results, collected in patent publication US20110245183A1, “Topical Uses of Szeto-Schiller Peptides” (priority 2010, published 2011).
# Where no end group is shown, it is not given here. [ ]: non-standard residue; d: D form. Dmt = Cc1cc(O)cc(C)c1C[C@H](N)C(=O)O
# Key:
# [1] = test system: Parkinson's Disease (PD) or Amyotrophic Lateral Sclerosis (ALS); settings: mice studies
# [2] = test system: isolated mitochondria; settings: MPP+ (1-methyl-4-phenylpyridium)
# [3] = test system: LDL
substance,measurement,setting,value
"D-Arg-2′,6′-Dmt-Lys-Phe-NH2 ([dR][Dmt]KF-NH2) [SS-31]",effectiveness in the treatment of Parkinson's Disease (PD) or Amyotrophic Lateral Sclerosis (ALS),[1],may be effective
same,MPP+-induced inhibition of ATP production,[2],prevented
same,MPP+-induced inhibition of oxygen consumption,[2],prevented
same,MPP+-induced mitochondrial swelling,[2],prevented
same,inhibiting LDL oxidation,[3],as effective as SS-02
Phe-D-Arg-Phe-Lys-NH2 (F[dR]FK-NH2; N-terminus assumed; SMILES N=C(N)NCCC[C@@H](NC(=O)[C@@H](N)Cc1ccccc1)C(=O)N[C@@H](Cc1ccccc1)C(=O)N[C@@H](CCCCN)C(N)=O) [SS-20],effectiveness in the treatment of Parkinson's Disease (PD) or Amyotrophic Lateral Sclerosis (ALS),[1],may be effective
same,MPP+-induced inhibition of ATP production,[2],prevented
same,MPP+-induced inhibition of oxygen consumption,[2],prevented
same,MPP+-induced mitochondrial swelling,[2],prevented
